# Test results reported in ChEMBL document CHEMBL5226342, “Novel Reversible-Binding PET Ligands for Imaging Monoacylglycerol Lipase Based on the Piperazinyl Azetidine Scaffold” (J Med Chem, 2021).
# Active and inactive are the calls of the source. No cut-off for these calls is given here.
# Columns and labels:
# [1] = target: T1, Lysophosphatidylserine lipase ABHD12 (Mus musculus) (UniProt Q99LR1); experiment: Displacement of FP-rhodamine from ABHD12 in mouse brain membrane fraction preincubated for 30 mins followed by FP-rhodhamine addition for 10 mins by Activity-Based Protein Profiling analysis; format: cell membranes; settings: time 40.0 min
# T1 sequence (whole entry): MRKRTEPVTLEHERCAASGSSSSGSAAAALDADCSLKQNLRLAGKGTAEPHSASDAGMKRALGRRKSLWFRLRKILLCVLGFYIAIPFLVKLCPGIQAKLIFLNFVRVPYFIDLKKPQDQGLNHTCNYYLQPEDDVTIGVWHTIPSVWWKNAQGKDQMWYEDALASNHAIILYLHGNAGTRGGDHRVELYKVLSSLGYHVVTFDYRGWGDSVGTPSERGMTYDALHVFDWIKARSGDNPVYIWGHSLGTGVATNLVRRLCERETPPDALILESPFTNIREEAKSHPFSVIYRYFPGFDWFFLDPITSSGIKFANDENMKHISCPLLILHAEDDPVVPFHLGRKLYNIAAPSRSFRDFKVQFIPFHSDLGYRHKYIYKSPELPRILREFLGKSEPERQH
# [2] = target: T2, Monoacylglycerol lipase ABHD6 (Mus musculus) (UniProt Q8R2Y0); experiment: Displacement of FP-rhodamine from ABHD6 in mouse brain membrane fraction preincubated for 30 mins followed by FP-rhodhamine addition for 10 mins by Activity-Based Protein Profiling analysis; format: cell membranes; settings: time 40.0 min
# T2 sequence (whole entry): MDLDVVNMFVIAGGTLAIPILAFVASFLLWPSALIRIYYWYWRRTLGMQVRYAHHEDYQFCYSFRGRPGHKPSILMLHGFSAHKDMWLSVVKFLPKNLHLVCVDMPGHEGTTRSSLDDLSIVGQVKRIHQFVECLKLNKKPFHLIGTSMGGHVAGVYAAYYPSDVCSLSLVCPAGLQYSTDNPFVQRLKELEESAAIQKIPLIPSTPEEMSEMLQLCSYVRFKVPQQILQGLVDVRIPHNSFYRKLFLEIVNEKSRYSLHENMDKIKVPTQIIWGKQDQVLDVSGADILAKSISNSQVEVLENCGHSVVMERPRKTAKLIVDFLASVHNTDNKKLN
# [3] = Lipophilicity, logD of the compound by shake flask method; format: physicochemical; settings: octanol/water
# [4] = target: T3, Neutral cholesterol ester hydrolase 1 (Mus musculus) (UniProt Q8BLF1); experiment: Displacement of FP-rhodamine from KIAA1363 in mouse brain membrane fraction preincubated for 30 mins followed by FP-rhodhamine addition for 10 mins by Activity-Based Protein Profiling analysis; format: cell membranes; settings: time 40.0 min
# T3 sequence (whole entry): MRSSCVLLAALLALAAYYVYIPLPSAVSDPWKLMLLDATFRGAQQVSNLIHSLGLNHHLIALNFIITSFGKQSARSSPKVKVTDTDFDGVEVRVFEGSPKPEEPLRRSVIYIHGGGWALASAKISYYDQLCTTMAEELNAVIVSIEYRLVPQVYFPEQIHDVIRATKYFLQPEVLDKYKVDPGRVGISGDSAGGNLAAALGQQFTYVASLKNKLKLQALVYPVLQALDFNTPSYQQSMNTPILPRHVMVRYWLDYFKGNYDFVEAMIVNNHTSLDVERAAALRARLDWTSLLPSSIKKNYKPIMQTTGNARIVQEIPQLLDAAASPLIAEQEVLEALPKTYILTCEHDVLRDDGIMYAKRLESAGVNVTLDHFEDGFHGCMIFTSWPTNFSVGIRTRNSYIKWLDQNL
# [5] = target: T4, Fatty-acid amide hydrolase 1 (Mus musculus) (UniProt O08914); experiment: Displacement of FP-rhodamine from FAAH in mouse brain membrane fraction preincubated for 30 mins followed by FP-rhodhamine addition for 10 mins by Activity-Based Protein Profiling analysis; format: cell membranes; settings: time 40.0 min
# T4 sequence (whole entry): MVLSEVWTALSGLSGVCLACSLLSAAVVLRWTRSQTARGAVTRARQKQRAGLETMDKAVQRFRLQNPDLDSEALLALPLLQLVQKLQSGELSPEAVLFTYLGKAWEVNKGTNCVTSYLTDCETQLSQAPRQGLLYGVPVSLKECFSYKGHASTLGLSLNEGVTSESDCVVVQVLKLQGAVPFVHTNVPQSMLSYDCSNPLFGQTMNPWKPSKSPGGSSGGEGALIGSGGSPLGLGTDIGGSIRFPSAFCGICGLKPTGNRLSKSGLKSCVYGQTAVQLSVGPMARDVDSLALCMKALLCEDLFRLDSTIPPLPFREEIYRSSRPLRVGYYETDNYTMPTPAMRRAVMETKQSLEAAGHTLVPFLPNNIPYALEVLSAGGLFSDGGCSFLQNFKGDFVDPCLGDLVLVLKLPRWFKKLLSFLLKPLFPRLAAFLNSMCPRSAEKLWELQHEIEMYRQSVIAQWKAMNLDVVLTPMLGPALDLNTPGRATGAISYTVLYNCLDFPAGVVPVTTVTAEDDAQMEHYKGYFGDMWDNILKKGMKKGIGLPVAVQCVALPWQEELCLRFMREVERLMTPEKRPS
# [6] = target: T5, Monoglyceride lipase (Mus musculus) (UniProt O35678); experiment: Irreversible inhibition of MAGL in mouse brain membrane fraction assessed as enzyme recovery by measuring FP-rhodamine reactivity at 50 nM preincubated for 30 mins followed by FP-rhodamine challenge for 5 to 180 mins by Activity-Based Protein Profiling analysis; format: cell membranes; settings: time 35-210 min
# T5 sequence (whole entry): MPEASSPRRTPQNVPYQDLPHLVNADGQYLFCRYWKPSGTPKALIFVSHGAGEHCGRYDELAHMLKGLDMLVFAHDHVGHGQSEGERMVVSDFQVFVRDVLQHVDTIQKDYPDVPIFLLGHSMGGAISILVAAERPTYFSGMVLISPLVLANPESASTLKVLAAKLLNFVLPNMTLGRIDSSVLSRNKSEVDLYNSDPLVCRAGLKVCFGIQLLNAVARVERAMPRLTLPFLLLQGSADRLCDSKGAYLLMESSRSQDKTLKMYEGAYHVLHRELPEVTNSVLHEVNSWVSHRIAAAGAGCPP
SMILES,inhibition [1],inhibition [2],logD [3],inhibition [4],inhibition [5],inhibition [6]
O=C(c1ccc2c(ccn2-c2ccc(F)cc2)c1)N1CC(N2CCN(C(=O)c3nccs3)CC2)C1,inactive,inactive,3.28,inactive,inactive,–
O=C(ON1C(=O)CCC1=O)N1CCN(C(c2ccc(Cl)cc2)c2ccc(Cl)cc2)CC1,–,–,–,–,–,Active
